Experiments:
A. baumannii 4123 = experiment: Effective dose (ED50, ED95) in bacteremia infection mouse model; format: in vivo; conditions: Acinetobacter baumannii, 4123, ip; immunosuppressed mice, intraperitoneal 1.0 and 6.0 hours after infection, survival 7.0 days, BLISS method; read-out: ED50 (effective dose that cures 50% infected mice)
Description: In this regard, immunosuppressed mice were used for the following in vivo studies. Immunosuppression was induced by intraperitoneal injection of 200 mg/kg cyclophosphamide 4 days prior to infection. The mice were anesthetized by intraperitoneal injection of 1% pentobarbital (40 mg/kg, sigma). The mice were then infected with A. baumannii 4123 to determine the minimum lethal dose for subsequent effective dose and efficacy testing. Briefly, overnight cultures of A. baumannii 4123 were harvested and suspended in phosphate-buffered saline (PBS). Subsequently, the cyclophosphamide-pretreated mice were injected with 0.3 mL of the bacterial suspension at designated doses (e.g., 1.0×10^8, 2.5×10^8, 5×10^8, 1.0×10^9, 2.0×10^9 CFU/mL, six mice per group) via the tail vein. The minimum lethal dose, the lowest concentration sufficient to cause 100% mortality, was determined from the survival rate of mice at 48 hours post-infection by the BLISS method.
Firstly, a bacterial suspension with the minimum lethal dose (0.3 mL) was introduced to the above described cyclophosphamide-pretreated mice via the tail vein. […] The number of surviving mice in each group was recorded for 7.0 days to estimate ED50 and ED95 via the BLISS method.

[1] = test system: clinically isolated MDR K. pneumoniae, E. coli, A. baumannii and MRSA strains; experiment: MIC by broth microdilution against different types and strains of clinically isolated MDR bacteria; format: cell-based; conditions: MIC comparison
Description: To facilitate comparison, an antimicrobial guanidinium-based macromolecule without a sugar functional group (identified herein as Dp20), as well as strong antibiotics (including imipenem, vancomycin, ceftriaxone, and gentamycin), were also tested against the clinically isolated pathogens. The MDR clinical isolates were obtained from patients' blood and phlegm. All isolates were identified by routine laboratory methods and stored in 20% (v/v) glycerol at 80° C.
In accordance with the broth microdilution method, MDR microbes including one or more strains of K. pneumoniae, E. coli, A. baumannii, and MRSA were harvested in midexponential growth phase after grown overnight in Mueller-Hinton (MH) agar plates at 37° C. The antimicrobial agents were prepared in Mueller Hinton broth (MHB) at various concentrations. The bacteria suspensions were then diluted with phosphate-buffer saline (PBS), with a potential of Hydrogen (PH) of 7.4) to adjust the turbidity approximately to the Standard McFarland 0.6, which corresponds to the concentration of 1×10^8 colony-forming unit (CFU) per mL (CFU/mL, after which the bacteria suspension was further diluted by 100-fold with MHB (1×10^6 CFU/mL). Subsequently, equal volumes (100 μL) of bacterial suspension and agent solution prepared previously were mixed in each well of a 96-well plate and incubated for 18 hours at 37° C. […]

C[C@@H](O)[C@H]1C(=O)N2C(C(=O)O)=C(SCCN=CN)C[C@H]12 [imipenem]
ED50 (A. baumannii 4123): 6.1 mg/kg

CN[C@H](CC(C)C)C(=O)N[C@H]1C(=O)N[C@@H](CC(N)=O)C(=O)N[C@H]2C(=O)N[C@H]3C(=O)N[C@H](C(=O)N[C@H](C(=O)O)c4cc(O)cc(O)c4-c4cc3ccc4O)[C@H](O)c3ccc(c(Cl)c3)Oc3cc2cc(c3O[C@@H]2O[C@H](CO)[C@@H](O)[C@H](O)[C@H]2O[C@H]2C[C@](C)(N)[C@H](O)[C@H](C)O2)Oc2ccc(cc2Cl)[C@H]1O [vancomycin]
spectrum of efficacy (Gram-negative / Gram-positive strains) [1]: only demonstrated efficacy Gram-positive strains
